Data as given in ChEMBL document CHEMBL4387766, “Synthesis and biological evaluation of PSMA-targeting paclitaxel conjugates” (Bioorg Med Chem Lett, 2019).
pIC50: −log10 of the molar value.

Assays:
[1] = Selectivity ratio of CC50 for human VA13 cells to CC50 for PSMA-positive human LNCAP cells
[2] = system: CWR22R; assay: Cytotoxicity against PSMA-positive human 22Rv1 cells assessed as reduction in cell viability measured after 72 hrs by MTT assay; type: functional; conditions: 22Rv1, 72 h
[3] = Cytotoxicity against human A549 cells assessed as reduction in cell viability measured after 72 hrs by MTT assay; type: cell-based
[4] = Cytotoxicity against human VA13 cells assessed as reduction in cell viability measured after 72 hrs by MTT assay; type: cell-based; conditions: WI-38 VA13 cells
[5] = Selectivity ratio of CC50 for human PSMA-deficient PC3 cells to CC50 for PSMA-positive human LNCAP cells; type: functional
[6] = Cytotoxicity against HEK293T cells assessed as reduction in cell viability measured after 72 hrs by MTT assay; type: cell-based, HEK-293T; conditions: human
[7] = system: PC-3; assay: Cytotoxicity against PSMA-deficient human PC3 cells assessed as reduction in cell viability measured after 72 hrs by MTT assay; type: functional; conditions: PC-3, 72 h
[8] = Selectivity ratio of CC50 for human PSMA-deficient PC3 cells to CC50 for PSMA-positive human 22Rv1 cells; type: functional
[9] = Selectivity ratio of CC50 for human VA13 cells to CC50 for PSMA-positive human 22Rv1 cells
[10] = system: LNCaP; assay: Cytotoxicity against PSMA-positive human LNCAP cells assessed as reduction in cell viability measured after 72 hrs by MTT assay; type: functional
[11] = Cytotoxicity against human MCF7 cells assessed as reduction in cell viability measured after 72 hrs by MTT assay; type: cell-based
[12] = molecular target: Glutamate carboxypeptidase 2 (Homo sapiens, UniProt Q04609); assay: Inhibition of PSMA in human LNCAP cells using NAAG as substrate measured after 2 hrs by amplex red reagent based fluorescence assay; type: cell-based
Chain of Glutamate carboxypeptidase 2 (Q04609 whole entry): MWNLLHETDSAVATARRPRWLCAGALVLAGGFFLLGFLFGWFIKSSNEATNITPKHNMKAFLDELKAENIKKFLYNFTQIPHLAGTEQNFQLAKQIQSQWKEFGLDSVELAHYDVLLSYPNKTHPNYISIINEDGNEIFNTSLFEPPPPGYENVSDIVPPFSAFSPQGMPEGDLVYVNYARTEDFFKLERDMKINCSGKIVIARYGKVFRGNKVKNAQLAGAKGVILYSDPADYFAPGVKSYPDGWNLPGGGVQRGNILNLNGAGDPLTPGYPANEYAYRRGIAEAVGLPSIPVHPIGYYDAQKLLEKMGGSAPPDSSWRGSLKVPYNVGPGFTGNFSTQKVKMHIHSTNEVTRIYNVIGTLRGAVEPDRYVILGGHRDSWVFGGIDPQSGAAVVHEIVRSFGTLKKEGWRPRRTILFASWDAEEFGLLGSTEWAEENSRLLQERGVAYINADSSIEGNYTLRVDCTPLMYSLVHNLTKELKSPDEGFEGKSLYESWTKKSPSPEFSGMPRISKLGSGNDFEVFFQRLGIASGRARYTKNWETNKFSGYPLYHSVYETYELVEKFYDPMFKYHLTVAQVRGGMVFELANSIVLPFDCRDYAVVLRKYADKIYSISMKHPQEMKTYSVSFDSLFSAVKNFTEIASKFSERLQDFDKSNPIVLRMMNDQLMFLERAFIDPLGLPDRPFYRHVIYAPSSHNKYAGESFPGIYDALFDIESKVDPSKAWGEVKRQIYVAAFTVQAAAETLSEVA

[13] = system: CWR22R; assay: Antitumor activity against human 22Rv1 cells xenografted in nu/nu mouse assessed as tumor growth inhibition at 6 mg/kg, iv administered 3 times per week relative to control; type: functional; conditions: 22Rv1, iv, read-out: TGI

| pIC50 [12] | Structure (SMILES) | Selectivity ratio [1] | CC50 [2] [nM] | CC50 at 72 h [3] [nM] | CC50 at 72 h [4] [nM] | Selectivity ratio [5] | CC50 at 72 h [6] [nM] | CC50 [7] [nM] | Selectivity ratio [8] | Selectivity ratio [9] | CC50 [10] [nM] | CC50 at 72 h [11] [nM] | inhibition in vivo at 6 mg/kg [13] [%] |
| --- | --- | --- | --- | --- | --- | --- | --- | --- | --- | --- | --- | --- | --- |
| – | CC(=O)O[C@H]1C(=O)[C@]2(C)[C@@H](OC(=O)CCCc3cn(CCCCCCCCCCC(=O)NCCCC[C@H](NC(=O)N[C@@H](CCC(=O)O)C(=O)O)C(=O)O)nn3)C[C@H]3OC[C@@]3(OC(C)=O)[C@H]2[C@H](OC(=O)c2ccccc2)[C@]2(O)C[C@H](OC(=O)[C@H](O)[C@@H](NC(=O)c3ccccc3)c3ccccc3)C(C)=C1C2(C)C | 0.53 | 2640 | 632 | 1160 | 1.43 | 730 | 2920 | 1.61 | 0.59 | 1010 | 1210 | – |
| 6.85 | [N-]=[N+]=NCCCCCC(=O)N(CCCC[C@H](NC(=O)N[C@@H](CCC(=O)O)C(=O)O)C(=O)O)Cc1ccc(O)cc1 | – | – | – | 50200 | – | – | – | – | – | – | – | – |
| – | CC(=O)O[C@H]1C(=O)[C@@]2(C)[C@H]([C@H](OC(=O)c3ccccc3)[C@]3(O)C[C@H](OC(=O)[C@H](OC(=O)CCCc4cn(CCCCCNC(=O)NCCCC[C@H](NC(=O)N[C@@H](CCC(=O)O)C(=O)O)C(=O)O)nn4)[C@@H](NC(=O)c4ccccc4)c4ccccc4)C(C)=C1C3(C)C)[C@]1(OC(C)=O)CO[C@@H]1C[C@@H]2O | 0.56 | 34 | – | 37 | 0.99 | 14 | 25 | 1.09 | 0.61 | 13 | 56 | – |
| – | CC(=O)O[C@H]1C(=O)[C@@]2(C)[C@H]([C@H](OC(=O)c3ccccc3)[C@]3(O)C[C@H](OC(=O)[C@H](OC(=O)CCCc4cn(CCCCCCCCCCNC(=O)NCCCC[C@H](NC(=O)N[C@@H](CCC(=O)O)C(=O)O)C(=O)O)nn4)[C@@H](NC(=O)c4ccccc4)c4ccccc4)C(C)=C1C3(C)C)[C@]1(OC(C)=O)CO[C@@H]1C[C@@H]2O | 0.71 | 132 | 5 | 101 | 0.63 | 42 | 75 | 0.83 | 0.93 | 60 | 162 | – |
| 6.77 | [N-]=[N+]=NCCCCCC(=O)N(CCCC[C@H](NC(=O)N[C@@H](CCC(=O)O)C(=O)O)C(=O)O)Cc1ccc(Br)cc1 | – | – | – | – | – | – | – | – | – | – | – | – |
| – | CC(=O)O[C@H]1C(=O)[C@@]2(C)[C@H]([C@H](OC(=O)c3ccccc3)[C@]3(O)C[C@H](OC(=O)[C@H](OC(=O)CCCc4cn(CCCCCCCCCCC(=O)N(CCCC[C@H](NC(=O)N[C@@H](CCC(=O)O)C(=O)O)C(=O)O)Cc5ccc(F)cc5)nn4)[C@@H](NC(=O)c4ccccc4)c4ccccc4)C(C)=C1C3(C)C)[C@]1(OC(C)=O)CO[C@@H]1C[C@@H]2O | 0.54 | 1140 | < 30 | 27 | 0.51 | 41 | 479 | 0.62 | 0.65 | 467 | 66 | – |
| – | CC(=O)O[C@H]1C(=O)[C@@]2(C)[C@H]([C@H](OC(=O)c3ccccc3)[C@]3(O)C[C@H](OC(=O)[C@H](OC(=O)CCCc4cn(CCCCCCCCCCC(=O)N(CCCC[C@H](NC(=O)N[C@@H](CCC(=O)O)C(=O)O)C(=O)O)Cc5ccc(Br)cc5)nn4)[C@@H](NC(=O)c4ccccc4)c4ccccc4)C(C)=C1C3(C)C)[C@]1(OC(C)=O)CO[C@@H]1C[C@@H]2O | 0.38 | 53 | < 30 | < 30 | 0.18 | < 30 | 25 | 0.7 | 1.46 | 67 | 34 | – |
| – | CC(=O)O[C@H]1C(=O)[C@@]2(C)[C@H]([C@H](OC(=O)c3ccccc3)[C@]3(O)C[C@H](OC(=O)[C@H](OC(=O)CCCc4cn(CCCCCC(=O)N(CCCC[C@H](NC(=O)N[C@@H](CCC(=O)O)C(=O)O)C(=O)O)Cc5ccc(Cl)cc5)nn4)[C@@H](NC(=O)c4ccccc4)c4ccccc4)C(C)=C1C3(C)C)[C@]1(OC(C)=O)CO[C@@H]1C[C@@H]2O | 0.26 | 1670 | < 30 | 48 | 0.34 | 40 | 1030 | 0.91 | 0.7 | 1480 | 78 | – |
| 6.96 | [N-]=[N+]=NCCCCCC(=O)N(CCCC[C@H](NC(=O)N[C@@H](CCC(=O)O)C(=O)O)C(=O)O)Cc1ccc(Cl)cc1 | – | – | – | > 100000 | – | – | – | – | – | – | – | – |
| – | CC(=O)O[C@H]1C(=O)[C@@]2(C)[C@H]([C@H](OC(=O)c3ccccc3)[C@]3(O)C[C@H](OC(=O)[C@H](OC(=O)CCCc4cn(CCCCCC(=O)N(CCCC[C@H](NC(=O)N[C@@H](CCC(=O)O)C(=O)O)C(=O)O)Cc5ccc(Br)cc5)nn4)[C@@H](NC(=O)c4ccccc4)c4ccccc4)C(C)=C1C3(C)C)[C@]1(OC(C)=O)CO[C@@H]1C[C@@H]2O | 0.33 | 1130 | < 30 | 45 | 0.85 | 38 | 876 | 1.15 | 0.45 | 510 | 94 | – |
| – | CC(=O)O[C@H]1C(=O)[C@@]2(C)[C@H]([C@H](OC(=O)c3ccccc3)[C@]3(O)C[C@H](OC(=O)[C@H](OC(=O)CCCc4cn(CCCCCCCCCCC(=O)NCCCC[C@H](NC(=O)N[C@@H](CCC(=O)O)C(=O)O)C(=O)O)nn4)[C@@H](NC(=O)c4ccccc4)c4ccccc4)C(C)=C1C3(C)C)[C@]1(OC(C)=O)CO[C@@H]1C[C@@H]2O | 0.7 | 1000 | 20 | 66 | 0.99 | 294 | 1230 | 1.2 | 0.85 | 835 | 189 | – |
| – | CC(=O)O[C@H]1C(=O)[C@@]2(C)[C@H]([C@H](OC(=O)c3ccccc3)[C@]3(O)C[C@H](OC(=O)[C@H](OC(=O)CCCc4cn(CCCCCC(=O)N(CCCC[C@H](NC(=O)N[C@@H](CCC(=O)O)C(=O)O)C(=O)O)Cc5ccc(F)cc5)nn4)[C@@H](NC(=O)c4ccccc4)c4ccccc4)C(C)=C1C3(C)C)[C@]1(OC(C)=O)CO[C@@H]1C[C@@H]2O | 0.59 | 1320 | < 30 | < 30 | 1.01 | < 30 | 740 | 0.82 | 0.48 | 365 | 49 | – |
| – | CC(=O)O[C@H]1C(=O)[C@@]2(C)[C@H]([C@H](OC(=O)c3ccccc3)[C@]3(O)C[C@H](OC(=O)[C@H](OC(=O)CCCc4cn(CCCCCCCCCCC(=O)N(CCCC[C@H](NC(=O)N[C@@H](CCC(=O)O)C(=O)O)C(=O)O)Cc5ccc(Cl)cc5)nn4)[C@@H](NC(=O)c4ccccc4)c4ccccc4)C(C)=C1C3(C)C)[C@]1(OC(C)=O)CO[C@@H]1C[C@@H]2O | 0.43 | 120 | < 30 | 24 | 0.22 | 23 | 20 | 0.24 | 0.47 | 44 | 56.5 | – |
| – | CC(=O)O[C@H]1C(=O)[C@@]2(C)[C@H]([C@H](OC(=O)c3ccccc3)[C@]3(O)C[C@H](OC(=O)[C@H](OC(=O)CCCc4cn(CCCCCC(=O)N(CCCC[C@H](NC(=O)N[C@@H](CCC(=O)O)C(=O)O)C(=O)O)Cc5ccc(O)cc5)nn4)[C@@H](NC(=O)c4ccccc4)c4ccccc4)C(C)=C1C3(C)C)[C@]1(OC(C)=O)CO[C@@H]1C[C@@H]2O | 0.37 | 61 | 20 | 65 | 1.04 | 23 | 90 | 2.19 | 0.78 | 43 | 169 | – |
| 5.83 | NCCCC[C@H](NC(=O)N[C@@H](CCC(=O)O)C(=O)O)C(=O)O | – | – | – | > 100000 | – | – | – | – | – | – | – | – |
| – | CC(=O)O[C@H]1C(=O)[C@@]2(C)[C@H]([C@H](OC(=O)c3ccccc3)[C@]3(O)C[C@H](OC(=O)[C@H](O)[C@@H](NC(=O)c4ccccc4)c4ccccc4)C(C)=C1C3(C)C)[C@]1(OC(C)=O)CO[C@@H]1C[C@@H]2O [PACLITAXEL] | 1 | 3.9 | < 20 | < 20 | 1 | < 20 | 2.7 | 1 | 1 | 1.4 | < 20 | 30 |
